Results reported in patent US10562912B2 (C&C Research Laboratories, priority 2013, dated 2020).

Key:
Type in all cases: cell-based
[1] = target: T1, STAT3 (Homo sapiens, UniProt P40763); assay: STAT3 reporter gene assay (luciferase), LNCaP stable cell line (pSTAT3-TA-luc), IL-6 stimulation
T1 construct: plasmid pSTAT3-TA-luc), which contains a stably operating STAT3 promoter; endogenous in cells
Method in brief: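 Cytotoxicity was run on a duplicate plate with CellTiter-Glo, while the other plate gave luciferase read-outs from lysed LNCaP pSTAT3-TA-luc reporter cells. Cells were treated with graded compound concentrations plus IL-6 (10 ng/mL final) for 24–48 h in 3% DCC-FBS medium. Unstimulated and stimulated wells served as negative and positive controls.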

[2] = test system: LNCaP; assay: Cell growth inhibition assay, prostate cancer cell line LNCaP (medium with 10 ng/mL IL-6); details: Homo sapiens, medium supplemented with 10 ng/mL of IL-6, 10,000 cells/well
[3] = test system: DU-145; assay: Cell growth inhibition assay, prostate cancer cell line DU-145; details: Homo sapiens, DU-145 prostate cancer cell line
Method in brief: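 Seed DU-145/HCT116 3,000 cells/well, SW626 5,000 cells/well; add compound dilution series; incubate 72–96 h, 37° C., 5% CO2; microscope check for precipitate; CellTiter-Glo, luminescence. Blank = no cells; vehicle = 0.1% DMSO.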

[4] = test system: HEL92.1.7; assay: Cell growth inhibition assay, blood cancer cell line HEL92.1.7; details: Homo sapiens, HEL 92.1.7, HEL92.1.7 blood cancer cell line
Procedure: The inhibitory effects of the compounds of the present invention against the growth of cancer cells were evaluated as shown below. The cancer cell lines including stomach cancer cell line (AGS), breast cancer cell lines (MDA-MB-231, MDA-MB-468, and BT-549), prostate cancer cell lines (LNCaP and DU-145), colon cancer cell line (HCT116), ovarian cancer cell line (SW626), liver cancer cell line (Hep3B), kidney cancer cell line (ACHN), lung cancer cell line (NCI-H23) and blood cancer cell lines (HEL92.1.7 and U266) were cultured under the protocol provided by each supplier. A medium supplemented with 10 ng/mL of IL-6 was used for LNCaP, a prostate cancer cell line, when treated with a drug. Each type of cells to be used in experiments were sub-cultured in a 96-well plate by counting the exact number of cells using Tali™ Image-based Cytometer (Life Technologies). In a 96-well plate, AGS, HCT116, and DU-145 were employed with 3,000 cells/well; NCI-H23, SW626, Hep3B, ACHN, BT-549, MDA-MB-231, HEL92.1.7, and U266 were employed with 5,000 cells/well; and LNCaP and MDA-MB-468 were employed with 10,000 cells/well. The cells were treated with the compounds listed in Examples which were diluted in various concentrations. Upon completion of the compounds treatment, AGS, HCT116, SW626, DU145, NCI-H23, Hep3B, ACHN, BT-549, LNCaP, HEL92.1.7, and U266 cells were cultured at 37° C. under 5% CO2 for from 72 to 96 hours, and MDA-MB-231 and MDA-MB-468 cells were cultured at 37° C. in air for from 72 to 96 hours. Subsequently, the cells were observed under microscope and drug precipitation and particular findings were investigated and recorded. And then, the 96-well plate was placed at room temperature for 30 minutes, added with 20 μL/well of CellTiter-Glo solution (Cat No. G7573, Promega) and shaken for 10 minutes, followed by being subjected to the measurement using PHERAstar™ microplate reader (BMG LABTECH) according to the supplier's general luminometer protocol. Wells where only culture liquid added without cell plating were used as a negative control, whereas wells where culture liquid containing 0.1% DMSO instead of the compounds listed in Examples were used as a positive control.

T1 sequence (P40763 whole entry): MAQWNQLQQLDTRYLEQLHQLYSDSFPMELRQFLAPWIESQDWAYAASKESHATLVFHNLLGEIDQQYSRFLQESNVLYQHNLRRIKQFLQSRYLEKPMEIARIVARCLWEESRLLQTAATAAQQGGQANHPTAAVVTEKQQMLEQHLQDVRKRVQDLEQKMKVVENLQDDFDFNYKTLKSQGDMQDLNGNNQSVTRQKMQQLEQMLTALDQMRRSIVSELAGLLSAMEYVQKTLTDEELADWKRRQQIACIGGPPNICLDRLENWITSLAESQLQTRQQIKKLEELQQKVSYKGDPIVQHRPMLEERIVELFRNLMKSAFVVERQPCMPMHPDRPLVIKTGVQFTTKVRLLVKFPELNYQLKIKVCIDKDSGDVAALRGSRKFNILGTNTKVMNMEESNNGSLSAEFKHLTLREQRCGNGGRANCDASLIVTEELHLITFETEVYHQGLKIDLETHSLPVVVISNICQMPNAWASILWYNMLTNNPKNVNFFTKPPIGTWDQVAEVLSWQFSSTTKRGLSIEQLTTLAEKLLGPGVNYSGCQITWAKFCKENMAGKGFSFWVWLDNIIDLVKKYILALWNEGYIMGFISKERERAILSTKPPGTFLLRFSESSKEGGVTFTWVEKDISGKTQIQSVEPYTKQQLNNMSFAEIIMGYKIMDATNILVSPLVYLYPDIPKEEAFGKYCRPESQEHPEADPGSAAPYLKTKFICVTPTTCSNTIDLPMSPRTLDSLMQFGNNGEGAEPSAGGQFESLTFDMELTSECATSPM

IC50 [1] [µM] | IC50 [2] [µM] | IC50 [3] [µM] | IC50 [4] [µM] | Structure (SMILES)
0.043 | 0.22 | 0.048 | 0.23 | CC(C)(c1cc(Cl)cc(NC(=O)c2cc3cc(NS(C)(=O)=O)ccc3s2)c1)c1cc(OCCN2CCOCC2)cc(OC(F)(F)F)c1 [Example 90, N-(3-chloro-5-(2-(3-(2-morpholinoethoxy)-5-(trifluoromethoxy)phenyl)propan-2-yl)phenyl)-5-(methylsulfonamido)benzo[b]thiophene-2-carboxamide]
0.09 | 0.13 | 0.053 | 0.3 | CC(C)(c1cc(F)cc(NC(=O)c2cc3cc(NS(C)(=O)=O)ccc3s2)c1)c1cc(CN2CCOCC2)cc(OC(F)(F)C(F)F)c1 [Example 140, N-(3-fluoro-5-(2-(3-(morpholinomethyl)-5-(1,1,2,2-tetrafluoroethoxy)phenyl)propan-2-yl)phenyl)-5-(methylsulfonamido)benzo[b]thiophene-2-carboxamide]
0.13 | 0.096 | 0.13 | 0.39 | Cn1ccc(C(C)(C)c2cc(Cl)cc(NC(=O)c3cc4cc(NS(C)(=O)=O)ccc4s3)c2)c1 [Example 168, N-(3-chloro-5-(2-(1-methyl-1H-pyrrol-3-yl)propan-2-yl)phenyl)-5-(methylsulfonamido)benzo[b]thiophene-2-carboxamide]
2.37 | > 1.1 | > 1.1 | > 1.1 | CC(C)(c1cc(Cl)cc(NC(=O)c2cc3cc(NS(C)(=O)=O)ccc3s2)c1)n1ncccc1=O [Example 190, N-(3-chloro-5-(2-(6-oxopyridazin-1(6H)-yl)propan-2-yl)phenyl)-5-(methylsulfonamido)benzo[b]thiophene-2-carboxamide]
0.29 | 0.47 | 0.18 | 0.48 | CC(C)Oc1cc(-c2cnn(C)c2)cc(C(C)(C)c2cc(Cl)cc(NC(=O)c3cc4cc(NS(C)(=O)=O)ccc4s3)c2)c1 [Example 143, N-(3-chloro-5-(2-(3-isopropoxy-5-(1-methyl-1H-pyrazol-4-yl)phenyl)propan-2-yl)phenyl)-5-(methylsulfonamido)benzo[b]thiophene-2-carboxamide]
> 10 | 0.58 | 0.38 | 1 | COc1cc(OC(F)(F)F)cc(C(C)(C)c2cc(Cl)nc(NC(=O)c3cc4cc(NS(C)(=O)=O)ccc4s3)c2)c1 [Example 148, N-(6-chloro-4-(2-(3-methoxy-5-(trifluoromethoxy)phenyl)propan-2-yl)pyridin-2-yl)-5-(methylsulfonamido)benzo[b]thiophene-2-carboxamide]
0.11 | 0.17 | 0.073 | 0.69 | CN(C)S(=O)(=O)N1CCN(Cc2cc(OC(F)(F)C(F)F)cc(C(C)(C)c3cc(Br)cc(NC(=O)c4cc5cc(NS(C)(=O)=O)ccc5s4)c3)c2)CC1 [Example 139, N-(3-bromo-5-(2-(3-((4-(N,N-dimethylsulfamoyl)piperazin-1-yl)methyl)-5-(1,1,2,2-tetrafluoroethoxy)phenyl)propan-2-yl)phenyl)-5-(methylsulfonamido)benzo[b]thiophene-2-carboxamide]
0.047 | 0.07 | 0.048 | 0.22 | CC(C)(c1cc(Br)cc(NC(=O)c2cc3cc(NS(C)(=O)=O)ncc3s2)c1)c1cc(OC(F)(F)F)cc(OC(F)(F)C(F)F)c1 [Example 89, N-(3-bromo-5-(2-(3-(1,1,2,2-tetrafluoroethoxy)-5-(trifluoromethoxy)phenyl)propan-2-yl)phenyl)-5-(methylsulfonamido)thieno[2,3-c]pyridine-2-carboxamide]
0.72 | 0.9 | > 1.1 | > 1.1 | CC(C)(c1cc(Cl)cc(NC(=O)c2cc3cc(NS(C)(=O)=O)ccc3s2)c1)N1CCCCC1 [Example 164, N-(3-chloro-5-(2-(piperidin-1-yl)propan-2-yl)phenyl)-5-(methylsulfonamido)benzo[b]thiophene-2-carboxamide]
0.083 | 0.24 | 0.13 | 0.65 | CS(=O)(=O)Nc1ccc2sc(C(=O)Nc3cc(Cl)cc(Oc4ccc(F)cc4F)c3)cc2c1 [Example 444, N-(3-chloro-5-(2,4-difluorophenoxy)phenyl)-5-(methylsulfonamido)benzo[b]thiophene-2-carboxamide]
5.2 | 2.6 | 1 | > 1.1 | CC(C)Oc1cc(N2CC[N+](C)([O-])CC2)cc(C(C)(C)c2cc(Cl)cc(NC(=O)c3cc4cc(NS(C)(=O)=O)ccc4s3)c2)c1 [Example 144]
0.067 | 0.04 | 0.06 | 0.16 | CC(C)Oc1cc(N2CCOCC2)cc(C(C)(C)c2cc(Cl)cc(NC(=O)c3cc4cc(NS(C)(=O)=O)ccc4s3)c2)c1 [Example 145, N-(3-chloro-5-(2-(3-isopropoxy-5-morpholinophenyl)propan-2-yl)phenyl)-5-(methylsulfonamido)benzo[b]thiophene-2-carboxamide]
0.053 | 0.034 | 0.038 | 0.007 | CC(C)Oc1cc(OC(F)(F)F)cc(C2(c3cc(Cl)cc(NC(=O)c4cc5cc(NS(C)(=O)=O)ccc5s4)c3)CC2)c1 [Example 431, N-(3-chloro-5-(1-(3-isopropoxy-5-(trifluoromethoxy)phenyl)cyclopropyl)phenyl)-5-(methylsulfonamido)benzo[b]thiophene-2-carboxamide]
0.006 | 0.023 | 0.008 | 0.017 | CC(C)Oc1cc(OC(F)(F)F)cc(C(C)(C)c2cc(Cl)cc(NC(=O)c3cc4cc(NS(=O)(=O)C(C)C)ccc4s3)c2)c1 [Example 203, N-(3-chloro-5-(2-(3-isopropoxy-5-(trifluoromethoxy)phenyl)propan-2-yl)phenyl)-5-((1-methylethyl)sulfonamido)benzo[b]thiophene-2-carboxamide]
0.02 | 0.054 | 0.018 | 0.26 | Cn1cc(Cc2cc(OC(F)(F)C(F)F)cc(C(C)(C)c3cc(Cl)cc(NC(=O)c4cc5cc(NS(C)(=O)=O)ccc5s4)c3)c2)cn1 [Example 138, N-(3-chloro-5-(2-(3-((1-methyl-1H-pyrazol-4-yl)methyl)-5-(1,1,2,2-tetrafluoroethoxy)phenyl)propan-2-yl)phenyl)-5-(methylsulfonamido) benzo[b]thiophene-2-carboxamide]
0.31 | 1 | 0.41 | > 1.1 | CC(C)(c1cc(Cl)cc(NC(=O)c2cc3cc(NS(C)(=O)=O)ccc3s2)c1)c1ccc[nH]1 [Example 166, N-(3-(2-(1H-pyrrol-2-yl)propan-2-yl)-5-chlorophenyl)-5-(methylsulfonamido)benzo[b]thiophene-2-carboxamide]
0.029 | 0.011 | 0.005 | 0.057 | O=C(Nc1cc(Cl)cc(-c2ccc(F)cc2F)c1)c1cc2cc(NS(=O)(=O)C3CCOC3)c(F)cc2s1 (centres unmarked) [Example 330, N-(5-chloro-2′,4′-difluoro-[1,1′-biphenyl]-3-yl)-6-fluoro-5-((tetrahydrofuran)-3-sulfonamido)benzo[b]thiophene-2-carboxamide]
